Experimental data: patent US20160244405A1, “COMPOSITIONS AND METHODS FOR THE TREATMENT OF HYPERGLYCEMIA AND METABOLIC SYNDROME” (priority 2015, published 2016)
In brackets after ≈: the same amount, converted by molar mass. Where two headings read alike, the source gives them in different places.

Test: Water solubility by adding distilled water in portions until a clear solution
Format: physicochemical
Settings: thermodynamic from solid
Protocol: The Solubility of the Compound of amino(3,3-dimethylguanidino)methaniminium (S)-2-((5Z,8Z,11Z,14Z,17Z)-icosa-5,8,11,14,17-pentaenamido)-4-methylpentanoate, Example-1 in Water was Compared with that of Eicosapentaenoic Acid (EPA) Measurement of the water solubility of the test compound was accomplished by using methods well known to those skilled in the art. Specifically, to a weighed amount of the test compounds of Example-1 and EPA were taken in separate vials; distilled water was added in small portions until a clear solution was obtained. The water solubility is calculated by dividing the weight of salt, in mg, by the volume of the solution, in mL. The water solubility of the compounds of example-1 compared to EPA alone were as follows: […]

Row | Structure (SMILES) | solubility (distilled water, weight of salt in mg divided by volume of solution in mL, read-out: water solubility) | solubility (water)
1 | CC/C=C\C/C=C\C/C=C\C/C=C\C/C=C\CCCC(=O)O [EPA, eicosapentaenoic acid] | < 0.3 mg/mL | –
2 | CC/C=C\C/C=C\C/C=C\C/C=C\C/C=C\CCCC(=O)N[C@@H](CC(C)C)C(=O)O [Example-1, amino(3,3-dimethylguanidino)methaniminium (S)-2-((5Z,8Z,11Z,14Z,17Z)-icosa-5,8,11,14,17-pentaenamido)-4-methylpentanoate] | – | 118 mg/mL (≈ 284 mM)
